Results as given in patent US4808603A, “3,5-diacyl-2,6-dialkyl-4-aryl-1,4-dihydropyridines, their use, and pharmaceutical compositions thereof” (Ciba-Geigy Corporation, priority 1985, dated 1989).

What was measured:
renally hypertonic rats = assay: reduction in blood pressure in renally hypertonic rats; assay type: in vivo; conditions: 2 hours after p.o. administration of 15 mg/kg
Procedure: For example, 2 hours after p.o. administration of 15 mg/kg of 2,6-dimethyl-4-(3-nitrophenyl)-1,4-dihydropyridine-3,5dicarboxylic acid 3-methyl ester 5-[2-[N-(4-(4-fluorophenyl)-4-oxo-n-butyl)-N-methylamino]ethyl ester] to renally hypertonic rats, a reduction in blood pressure of approx. 45 mm Hg may be observed.

[1] = system: isolated perfused mesenteric vessels of rats; assay: inhibition of potassium-induced vasoconstriction in isolated perfused mesenteric vessels of rats; assay type: cell-based; conditions: Rattus norvegicus, in vitro
Excerpt: (§1) The compounds of the formula I and salts thereof have valuable pharmacological properties, especially in the cardiovascular field. […] 177, 21-30, (1965)] by way of the inhibition of potassium- and noradrenalininduced vasoconstriction, for example using 2,6-dimethyl-4-(3-nitrophenyl)-1,4-dihydropyridine-3,5-dicarboxylic acid 3-methyl ester 5-[2-[N-(4-(4-fluorophenyl)-4-oxo-n-butyl)-N-methylamino]ethyl ester] at a concentration of approx. 10^-8 mol/liter (IC50) for the inhibition of potassium-induced vasoconstriction, and at a concentration of approx. 3×10^-10 mol/liter (IC50) for the inhibition of noradrenalin-induced vasoconstriction. […] Pharmacol. 21, 301-304 (1982)], for example using 2,6-dimethyl-4-(3-nitrophenyl)-1,4-dihydropyridine-3,5-dicarboxylic acid 3-methyl ester 5-[2-[N-(4-(4-fluorophenyl)-4-oxo-n-butyl)-N-methylamino]ethyl ester] at a concentration of approx. 10^-8 mol/liter (IC50).

serotonin2 -receptors = target: T1, serotonin2 -receptors (Rattus norvegicus, UniProt P14842); assay: displacement of 3H-ketanserin from its bonding sites in membranes of rats' brains; assay type: binding; conditions: read-out: IC50, displacement of 3H-ketanserin from serotonin2-receptor bonding sites
T1 construct: membranes of rats' brains; from tissue; host or cells: rat brain membranes
T1 sequence (P14842 whole entry): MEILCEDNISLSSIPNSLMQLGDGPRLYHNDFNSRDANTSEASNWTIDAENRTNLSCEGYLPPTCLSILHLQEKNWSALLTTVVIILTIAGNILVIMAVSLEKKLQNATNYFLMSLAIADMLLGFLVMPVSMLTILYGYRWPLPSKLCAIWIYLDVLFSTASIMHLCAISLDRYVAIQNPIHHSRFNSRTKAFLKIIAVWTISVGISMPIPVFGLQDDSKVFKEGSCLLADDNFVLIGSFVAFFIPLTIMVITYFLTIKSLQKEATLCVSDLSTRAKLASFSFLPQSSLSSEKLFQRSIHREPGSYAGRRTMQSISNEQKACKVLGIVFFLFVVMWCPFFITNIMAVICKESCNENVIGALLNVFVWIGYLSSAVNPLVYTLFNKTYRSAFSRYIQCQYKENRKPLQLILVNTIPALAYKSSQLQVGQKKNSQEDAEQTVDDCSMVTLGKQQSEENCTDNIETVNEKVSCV
Excerpt: as §1

[2] = system: isolated perfused mesenteric vessels of rats; assay: inhibition of noradrenalin-induced vasoconstriction in isolated perfused mesenteric vessels of rats; assay type: cell-based; conditions: Rattus norvegicus, in vitro
Excerpt: as §1

With `COC(=O)C1=C(C)NC(C)=C(C(=O)OCCN(C)CCCC(=O)c2ccc(F)cc2)C1c1cccc([N+](=O)[O-])c1` (stereo not shown) [2,6-dimethyl-4-(3-nitrophenyl)-1,4-dihydropyridine-3,5-dicarboxylic acid 3-methyl ester 5-[2-[N-(4-(4-fluorophenyl)-4-oxo-n-butyl)-N-methylamino]ethyl ester]] the “reduction in blood pressure” value (renally hypertonic rats) was “approx. 45 mm Hg”, the IC50 [1] was roughly 10 nM and the IC50 (serotonin2 -receptors) was roughly 10 nM. For the same compound, the IC50 [2] was roughly 0.3 nM.
